Results published in patent US20190388495A1, “Pharmaceutical Composition for Preventing or Treating Hypersensitivity Immune Disease, and Method for Producing Same” (QURATIS INC., priority 2017, published 2019).

Test system: plasmacytoid dendritic cells
Assay: IL-10 secretion from plasmacytoid dendritic cells induced with various toll-like receptor agonists, ELISA (Example 3)
Format: cell-based, C57BL/6 mice
Conditions: stimulated with ODN1826 1 μg/ml, 24 hours; vs non-treatment
Text: In order to check the immune tolerance inducing effect of various toll-like receptor agonists, differentiation into the plasmacytoid dendritic cells was induced by the same method as in Example 1. Ligands listed in Table 2 were used as the toll-like receptor agonist. From the cells obtained after 8 days of culture, the plasmacytoid dendritic cells were separated at a purity equal to or greater than 85% by a plasmacytoid dendritic cell separation kit (Miltenyi Biotec, Auburn, Calif.) and a magnetic cell sorting system (Vario MACS: Miltenyi Biotec, Auburn, Calif.). The separated cells (5×10^5 cells/ml) were inoculated into a 48 well plate. ODN1826 (1 μg/ml) was applied thereto and the cells were cultured for 24 hours. Then, supernatant was separated. The secretion pattern of the immunosuppressive cytokine IL-10 was then checked by ELISA (enzyme linked immunosorbent assay).

| Compound | expression level of IL-10 from plasmacytoid dendritic cells differentiated via treatment with the agonist |
| --- | --- |
| CC(C)Cn1cnc2c(N)nc3ccccc3c21 [TLR7 agonist, Imiquimod] | significantly increased |
| Pam3 [TLR2 agonist] | significantly increased |
| LPS [TLR4 agonist] | significantly increased |
